The results in this text go back to ChEMBL document CHEMBL3785087, “Synthesis and biological activities of indolizine derivatives as alpha-7 nAChR agonists” (Eur J Med Chem, 2016).

SMILES strings stand for the structures.

Assay type in all cases: cell-based
The target in test [1] is T1, Neuronal acetylcholine receptor subunit alpha-7 (Homo sapiens, UniProt P36544). Description: Agonist activity at human alpha7 nAChR expressed in xenopus oocytes preincubated for 10 mins followed by acetylcholine addition by patch clamp electrophysiological assay. In general terms: Patch clamp records ionic current or voltage across a cell membrane.
Test [2] addresses T1, Neuronal acetylcholine receptor subunit alpha-7. Description: […] to human alpha7 nAChR expressed in xenopus oocytes preincubated for 10 mins followed by acetylcholine addition by patch clamp electrophysiological assay relative to acetylcholine. Details: concentration or dose not given beside the values.
Test [3] shares this target. Kind of test: Displacement of [3H]-MLA from human alpha7 nAChR expressed in xenopus oocytes. (Displacement assays read how much labelled ligand stays bound in the presence of the test substance.)
Test [4] has the same target. Description: Displacement of [3H]-MLA from human alpha7 nAChR expressed in xenopus oocytes in presence of alpha7 nAChR positive allosteric modulator PNU-120596.

T1 sequence (P36544 whole entry): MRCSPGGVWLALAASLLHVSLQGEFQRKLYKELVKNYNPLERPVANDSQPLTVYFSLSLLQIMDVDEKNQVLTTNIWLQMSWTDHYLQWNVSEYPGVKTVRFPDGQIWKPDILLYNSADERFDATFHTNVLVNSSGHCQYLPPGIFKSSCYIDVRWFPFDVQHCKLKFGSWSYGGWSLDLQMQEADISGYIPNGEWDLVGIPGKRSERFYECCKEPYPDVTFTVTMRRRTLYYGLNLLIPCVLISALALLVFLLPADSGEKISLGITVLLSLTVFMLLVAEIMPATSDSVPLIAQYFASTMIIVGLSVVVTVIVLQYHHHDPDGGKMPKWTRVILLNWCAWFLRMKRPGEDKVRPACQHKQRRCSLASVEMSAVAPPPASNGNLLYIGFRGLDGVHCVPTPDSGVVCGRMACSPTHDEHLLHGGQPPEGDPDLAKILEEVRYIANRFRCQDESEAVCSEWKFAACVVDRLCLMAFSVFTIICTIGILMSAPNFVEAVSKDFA

By EC50 is commonly meant the concentration at which the effect is half-maximal. For `O=C(N[C@H]1CN2CCC1CC2)c1cc2ccccn2c1`, the EC50 in test [1] came out at 8.38 µM. Besides, in test [2], the Activity was determined as 57.1%.
The corresponding values for `CCOC(=O)c1cc(C(=O)c2ccc(F)cc2)n2ccc(C(=O)N[C@H]3CN4CCC3CC4)cc12` are over 20 µM and under 1%.
Taken in the same sequence, the figures for `CCOC(=O)c1cc(C(=O)c2cccc(F)c2)n2ccc(C(=O)N[C@H]3CN4CCC3CC4)cc12` were over 20 µM and under 1%.
Taken in the same sequence, the figures for `O=C(N[C@H]1CN2CCC1CC2)c1cc2c(Cl)cccn2c1` were over 20 µM and under 1%.
For the compound `O=C(N[C@H]1CN2CCC1CC2)c1cc2c(-c3ccccc3)cccn2c1`, the EC50 in test [1] was over 20 µM. For the same compound, the Activity in test [2] was under 1%.
Taken in the same sequence, the figures for `O=C(N[C@H]1CN2CCC1CC2)c1cc(C(=O)c2ccccc2Br)n2ccccc12` were over 20 µM and under 1%.
The compound `O=C(N[C@H]1CN2CCC1CC2)c1cc2cc(-c3ccccc3)ccn2c1` gave an EC50 in test [1] of over 20 µM. Moreover, the Activity in test [2] was under 1%.
For orientation: Ki means a measure of affinity in units of concentration, obtained from inhibition or displacement. Take `O=C(N[C@H]1CN2CCC1CC2)c1cc2cccc(Br)n2c1`: the results for the Ki in test [3] and in test [4] were 0.0149 µM and 0.0936 µM, respectively. In test [2], the Activity was 64.3%.
In test [1], `CN(C)c1cccc(-c2cccc3cc(C(=O)N[C@H]4CN5CCC4CC5)cn23)c1` had an EC50 of over 20 µM. This compound also yielded an Activity in test [2] of under 1%.
Taken in the same sequence, the figures for `CCOC(=O)c1cc(C(=O)c2cccc([N+](=O)[O-])c2)n2ccc(C(=O)N[C@H]3CN4CCC3CC4)cc12` were over 20 µM and under 1%.
The corresponding values for `O=C(N[C@H]1CN2CCC1CC2)c1cc(C(=O)c2ccc(-c3ccccc3)cc2)n2ccccc12` are over 20 µM and under 1%.
The corresponding values for `O=C(N[C@H]1CN2CCC1CC2)c1cc(C(=O)c2cccc(Br)c2)n2ccccc12` are over 20 µM and under 1%.
In the case of `Cc1ccccc1-c1ccc2cc(C(=O)N[C@H]3CN4CCC3CC4)cn2c1`, the EC50 in test [1] is over 20 µM. In test [2], the Activity is under 1%.
Taken in the same sequence, the figures for `O=C(N[C@H]1CN2CCC1CC2)c1cc2c(Br)cccn2c1` were 4.75 µM and 75.9%.
For the compound `O=C(N[C@H]1CN2CCC1CC2)c1cc2ccc(Br)cn2c1`, the EC50 in test [1] turned out to be 9.63 µM. Besides, the Activity in test [2] was found to be 86.3%.
Taken in the same sequence, the figures for `O=C(N[C@H]1CN2CCC1CC2)c1cc(C(=O)c2ccccc2F)n2ccccc12` were over 20 µM and under 1%.
`Cc1nc2c(Br)cccn2c1C(=O)N[C@H]1CN2CCC1CC2` yielded an EC50 in test [1] of over 20 µM. For the same compound, the Activity in test [2] was under 1%.
Taken in the same sequence, the figures for `O=C(N[C@H]1CN2CCC1CC2)c1cc(C(=O)c2cccc(Cl)c2)n2ccccc12` were over 20 µM and under 1%.
The corresponding values for `O=C(N[C@H]1CN2CCC1CC2)c1cc(C(=O)c2ccccc2)n2ccccc12` are over 20 µM and under 1%.
Taken in the same sequence, the figures for `O=C(N[C@H]1CN2CCC1CC2)c1cc2cccc(-c3ccccc3)n2c1` were 3.98 µM and 59.8%.
Regarding `CCOC(=O)c1cc(C(=O)c2cccc(Cl)c2)n2ccc(C(=O)N[C@H]3CN4CCC3CC4)cc12`, the EC50 in test [1] is over 20 µM. Also, the Activity in test [2] was under 1%.
Taken in the same sequence, the figures for `CCOC(=O)c1cc(C(=O)c2ccccc2)n2ccc(C(=O)N[C@H]3CN4CCC3CC4)cc12` were over 20 µM and under 1%.
For the compound `O=C(N[C@H]1CN2CCC1CC2)c1cnc2ccccn12`, the EC50 in test [1] was over 20 µM. In test [2], this compound returned an Activity of under 1%.
Taken in the same sequence, the figures for `CC(C)(C)c1ccc(-c2ccc3cc(C(=O)N[C@H]4CN5CCC4CC5)cn3c2)cc1` were over 20 µM and under 1%.
Take `O=C(N[C@H]1CN2CCC1CC2)c1cc2cc(Cl)ccn2c1`: in test [1], the EC50 is 6.92 µM. Also, the Activity in test [2] was determined as 19.6%.
The corresponding values for `O=C(N[C@H]1CN2CCC1CC2)c1cc(C(=O)c2ccc3ccccc3c2)n2ccccc12` are over 20 µM and under 1%.
The corresponding values for `CCOC(=O)c1cc(C(=O)c2ccccc2O)n2ccc(C(=O)N[C@H]3CN4CCC3CC4)cc12` are over 20 µM and under 1%.
The corresponding values for `CCOC(=O)c1cc(C(=O)c2ccccc2)n2cc(C(=O)N[C@H]3CN4CCC3CC4)ccc12` are over 20 µM and under 1%.
With `CCOC(=O)c1cc(C(=O)c2ccccc2)n2cccc(C(=O)N[C@H]3CN4CCC3CC4)c12`, in test [1], the EC50 is over 20 µM. The Activity in test [2] was under 1%.
The corresponding values for `O=C(N[C@H]1CN2CCC1CC2)c1cc(C(=O)c2ccc(Cl)cc2)n2ccccc12` are over 20 µM and under 1%.
Compound `O=C(N[C@H]1CN2CCC1CC2)c1cc2cccc(Cl)c2s1` [ENCENICLINE] registered an EC50 in test [1] of 0.34 µM. In test [2], this compound had an Activity of 33.5%.
For `Cc1cccc(-c2ccc3cc(C(=O)N[C@H]4CN5CCC4CC5)cn3c2)c1`, the concentration giving a half-maximal response (EC50) in test [1] was over 20 µM. In test [2], this compound yielded an Activity of under 1%.
Taken in the same sequence, the figures for `Cc1nc2ccc(F)cn2c1C(=O)N[C@H]1CN2CCC1CC2` were over 20 µM and under 1%.
Taken in the same sequence, the figures for `O=C(N[C@H]1CN2CCC1CC2)c1cc2cc(Br)ccn2c1` were 10.5 µM and 34.7%.
Taken in the same sequence, the figures for `Cc1cccc2cc(C(=O)N[C@H]3CN4CCC3CC4)cn12` were 2.14 µM and 66%.
As to `O=C(N[C@H]1CN2CCC1CC2)c1cc2ccc(-c3ccsc3)cn2c1`, the EC50 in test [1] was over 20 µM. Moreover, in test [2], the Activity is under 1%.
In turn, `CCOC(=O)c1cc(C(=O)c2cccc(C(F)(F)F)c2)n2ccc(C(=O)N[C@H]3CN4CCC3CC4)cc12` yielded an EC50 in test [1] of over 20 µM. This compound also registered an Activity in test [2] of under 1%.
The corresponding values for `Cc1cccc(-c2cccc3cc(C(=O)N[C@H]4CN5CCC4CC5)cn23)c1` are 3.99 µM and 63.9%.
Regarding `Cc1ccccc1-c1cccc2cc(C(=O)N[C@H]3CN4CCC3CC4)cn12`, the midpoint of the response in test [1], the EC50, lay at 4.64 µM. In test [2], this compound returned an Activity of 17.6%.
In test [1], `O=C(N[C@H]1CN2CCC1CC2)c1cc2ccc(-c3ccccc3)cn2c1` had a half-maximal effective concentration (EC50) of over 20 µM. This compound also yielded an Activity in test [2] of under 1%.
Taken in the same sequence, the figures for `CCOC(=O)c1cc(C(=O)c2ccc(Cl)c(Cl)c2)n2ccc(C(=O)N[C@H]3CN4CCC3CC4)cc12` were over 20 µM and under 1%.
The corresponding values for `O=C(N[C@H]1CN2CCC1CC2)c1cc2c(F)cccn2c1` are 2.83 µM and 63.7%.
Taken in the same sequence, the figures for `O=C(N[C@H]1CN2CCC1CC2)c1cc2ccc(-c3cccs3)cn2c1` were over 20 µM and under 1%.
Compound `CC(C)(C)c1ccc(-c2cccc3cc(C(=O)N[C@H]4CN5CCC4CC5)cn23)cc1` came in with an EC50 in test [1] of 8.6 µM. Besides, the Activity in test [2] came to 23.9%.
In test [1], `O=C(N[C@H]1CN2CCC1CC2)c1cc2cccc(Cl)n2c1` had an EC50 of 2.49 µM. The compound further yielded an Activity in test [2] of 63.2%.
In turn, `O=C(N[C@H]1CN2CCC1CC2)c1cc2cccc(-c3ccsc3)n2c1` gave an EC50 in test [1] of 3.54 µM. Also, the Activity in test [2] was found to be 40.8%.
Regarding `O=C(N[C@H]1CN2CCC1CC2)c1cc2ccc(Cl)cn2c1`, the EC50 in test [1] was over 20 µM. This compound also displayed an Activity in test [2] of under 1%.
Taken in the same sequence, the figures for `O=C(N[C@H]1CN2CCC1CC2)c1cc2cccc(-c3ccc(-c4ccccc4)cc3)n2c1` were 14.1 µM and 18%.
